Assay results as given in BigSolDB 2.1.

Question: For COc1cc(N)nc(OC)n1, which solubility (mole fraction) (in DMF, 283.15 K) is on record?
Answer: The solubility (mole fraction) was 0.055.

Question: What about the solubility (mole fraction) (in DMF, 288.15 K) of the same compound?
Answer: The solubility (mole fraction) was 0.0726.

Question: And the solubility (mole fraction) (in DMF, 293.15 K)?
Answer: Its solubility (mole fraction) is 0.0949.

Question: What about the solubility (mole fraction) (in DMF, 298.15 K) of the same compound?
Answer: The solubility (mole fraction) was 0.123.

Question: And the solubility (mole fraction) (in DMF, 303.15 K)?
Answer: Its solubility (mole fraction) is 0.158.

Question: What about the solubility (mole fraction) (in DMF, 308.15 K) of the same compound?
Answer: The solubility (mole fraction) was 0.201.

Question: And the solubility (mole fraction) (in DMF, 313.15 K)?
Answer: The solubility (mole fraction) was 0.254.

Question: And the solubility (mole fraction) (in DMF, 318.15 K)?
Answer: The solubility (mole fraction) was 0.319.

Question: And the solubility (mole fraction) (in DMF, 323.15 K)?
Answer: Its solubility (mole fraction) is 0.397.

Question: And the solubility (mole fraction) (in ethanol, 283.15 K)?
Answer: The solubility (mole fraction) was 0.0101.

Question: What about the solubility (mole fraction) (in ethanol, 288.15 K) of the same compound?
Answer: Its solubility (mole fraction) is 0.013.

Question: What about the solubility (mole fraction) (in ethanol, 293.15 K) of the same compound?
Answer: The solubility (mole fraction) was 0.0164.

Question: What about the solubility (mole fraction) (in ethanol, 298.15 K) of the same compound?
Answer: The solubility (mole fraction) was 0.0205.

Question: And the solubility (mole fraction) (in ethanol, 303.15 K)?
Answer: Its solubility (mole fraction) is 0.0253.

Question: What about the solubility (mole fraction) (in ethanol, 308.15 K) of the same compound?
Answer: The solubility (mole fraction) was 0.0313.

Question: What about the solubility (mole fraction) (in ethanol, 313.15 K) of the same compound?
Answer: The solubility (mole fraction) was 0.0383.

Question: And the solubility (mole fraction) (in ethanol, 318.15 K)?
Answer: The solubility (mole fraction) was 0.0463.

Question: And the solubility (mole fraction) (in ethanol, 323.15 K)?
Answer: Its solubility (mole fraction) is 0.0561.

Question: What about the solubility (mole fraction) (in isopropanol, 283.15 K) of the same compound?
Answer: The solubility (mole fraction) was 0.00553.

Question: What about the solubility (mole fraction) (in isopropanol, 288.15 K) of the same compound?
Answer: The solubility (mole fraction) was 0.00742.

Question: What about the solubility (mole fraction) (in isopropanol, 293.15 K) of the same compound?
Answer: The solubility (mole fraction) was 0.0101.

Question: What about the solubility (mole fraction) (in isopropanol, 298.15 K) of the same compound?
Answer: Its solubility (mole fraction) is 0.0133.

Question: What about the solubility (mole fraction) (in isopropanol, 303.15 K) of the same compound?
Answer: Its solubility (mole fraction) is 0.0175.

Question: What about the solubility (mole fraction) (in isopropanol, 308.15 K) of the same compound?
Answer: Its solubility (mole fraction) is 0.023.

Question: What about the solubility (mole fraction) (in isopropanol, 313.15 K) of the same compound?
Answer: Its solubility (mole fraction) is 0.0297.

Question: What about the solubility (mole fraction) (in isopropanol, 318.15 K) of the same compound?
Answer: The solubility (mole fraction) was 0.038.

Question: What about the solubility (mole fraction) (in isopropanol, 323.15 K) of the same compound?
Answer: Its solubility (mole fraction) is 0.0484.

Question: What about the solubility (mole fraction) (in methanol, 283.15 K) of the same compound?
Answer: The solubility (mole fraction) was 0.0181.

Question: What about the solubility (mole fraction) (in methanol, 288.15 K) of the same compound?
Answer: The solubility (mole fraction) was 0.0214.

Question: What about the solubility (mole fraction) (in methanol, 293.15 K) of the same compound?
Answer: Its solubility (mole fraction) is 0.0254.

Question: What about the solubility (mole fraction) (in methanol, 298.15 K) of the same compound?
Answer: The solubility (mole fraction) was 0.0301.

Question: And the solubility (mole fraction) (in methanol, 303.15 K)?
Answer: Its solubility (mole fraction) is 0.0352.

Question: What about the solubility (mole fraction) (in methanol, 308.15 K) of the same compound?
Answer: The solubility (mole fraction) was 0.0414.

Question: And the solubility (mole fraction) (in methanol, 313.15 K)?
Answer: The solubility (mole fraction) was 0.0482.

Question: What about the solubility (mole fraction) (in methanol, 318.15 K) of the same compound?
Answer: Its solubility (mole fraction) is 0.0559.

Question: And the solubility (mole fraction) (in methanol, 323.15 K)?
Answer: Its solubility (mole fraction) is 0.0643.

Question: And the solubility (mole fraction) (in water, 283.15 K)?
Answer: Its solubility (mole fraction) is 0.000298.

Question: What about the solubility (mole fraction) (in water, 288.15 K) of the same compound?
Answer: The solubility (mole fraction) was 0.000347.

Question: What about the solubility (mole fraction) (in water, 293.15 K) of the same compound?
Answer: Its solubility (mole fraction) is 0.000405.

Question: What about the solubility (mole fraction) (in water, 298.15 K) of the same compound?
Answer: The solubility (mole fraction) was 0.000464.

Question: And the solubility (mole fraction) (in water, 303.15 K)?
Answer: Its solubility (mole fraction) is 0.000534.

Question: What about the solubility (mole fraction) (in water, 308.15 K) of the same compound?
Answer: Its solubility (mole fraction) is 0.000614.

Question: And the solubility (mole fraction) (in water, 313.15 K)?
Answer: Its solubility (mole fraction) is 0.000695.

Question: And the solubility (mole fraction) (in water, 318.15 K)?
Answer: Its solubility (mole fraction) is 0.000788.

Question: What about the solubility (mole fraction) (in water, 323.15 K) of the same compound?
Answer: The solubility (mole fraction) was 0.000897.
